Measurements: patent US20240101599A1, “PEPTIDE, CELL GROWTH PROMOTER, PROTEIN PRODUCTION PROMOTER, CULTURE MEDIUM, CELL GROWTH METHOD USING PEPTIDE, AND PROTEIN PRODUCTION METHOD USING PEPTIDE” (Maruhachi Muramatsu, Inc., priority 2020, published 2024)
Peptide text beside a SMILES is read from it.

The compounds below were run on CHO-K1 (assay: Relationship between number of days of cell growth of each peptide and cell number (absorbance)). Details: Day 0; 1.1 mM GPP, 2.2 mM DGP, 2.1 mM GEK, 2.0 mM AGK; MEMα without FBS.
Assay type: cell-based
Method: Peptides having the sequences of Gly-Pro-Pro (GPP), Asp-Gly-Pro (DGP), Gly-Glu-Lys (GEK), and Ala-Gly-Lys (AGK) were synthesized to prepare each peptide solution such that the concentration was a concentration at which the cell number increased the most within a range of 0 mM to 5 mM. In other words, Gly-Pro-Pro (GPP) was adjusted to 11 mM, Asp-Gly-Pro (DGP) was adjusted to 22 mM, Gly-Glu-Lys (GEK) was adjusted to 21 mM, and Ala-Gly-Lys (AGK) was adjusted to 20 mM, and an amount of 1/10 of the total culture medium volume was added to each well immediately before the cell culture test such that final concentrations were 1.1 mM, 2.2 mM, 2.1 mM, and 2.0 mM, respectively.
A cell suspension prepared such that CHO-K1 (RIKEN BioResource Research Center, cell number: RCB2330) was at 3×10^4 cells/mL was seeded in a 96-well plate at 100 μL/well and cultured in an incubator at 37° C. and 5% CO2 for 24 hours. As a culture medium, an MEMα culture medium (Gibco) containing 10% FBS was used.
After removing the culture medium from each well and washing with the MEMα culture medium (100 μL), 90 μL of a new MEMα culture medium was dispensed into each well, and each peptide solution (10 μL) was added (total 100 μL/well) to perform culture for 0 to 5 days. Every day, 10 μL/well of a viable cell count measurement reagent SF (Nacalai Tesque Inc.) was added, and a color reaction was carried out in an incubator at 37° C. and 5% CO2 for 2 hours to measure an absorbance at 450 nm with a plate reader. A reference wavelength was 630 nm. It was confirmed that the absorbance at 450 nm correlated with the cell number. A similar culture test was performed using a system containing neither peptide nor FBS as a comparative sample.
The above preparation, culture, and measurement were performed with n=3, and Table 12 and FIG. 12 show the absorbance and the standard deviation of each peptide solution for each day.

| Structure (SMILES) | OD450 (average value n = 3) |
| --- | --- |
| NCCCC[C@H](NC(=O)[C@H](CCC(=O)O)NC(=O)CN)C(=O)O [GEK, Gly-Glu-Lys] (H-Gly-Glu-Lys-OH; N-terminus and C-terminus assumed) | 0.1613 |

Same assay, conditions: Day 1; 1.1 mM GPP, 2.2 mM DGP, 2.1 mM GEK, 2.0 mM AGK; MEMα without FBS

| Structure (SMILES) | OD450 (average value n = 3) |
| --- | --- |
| NCCCC[C@H](NC(=O)[C@H](CCC(=O)O)NC(=O)CN)C(=O)O [GEK, Gly-Glu-Lys] (H-Gly-Glu-Lys-OH; N-terminus and C-terminus assumed) | 0.4280 |

Same assay, conditions: Day 2; 1.1 mM GPP, 2.2 mM DGP, 2.1 mM GEK, 2.0 mM AGK; MEMα without FBS

| Structure (SMILES) | OD450 (average value n = 3) |
| --- | --- |
| NCCCC[C@H](NC(=O)[C@H](CCC(=O)O)NC(=O)CN)C(=O)O [GEK, Gly-Glu-Lys] (H-Gly-Glu-Lys-OH; N-terminus and C-terminus assumed) | 0.6043 |

Same assay, conditions: Day 3; 1.1 mM GPP, 2.2 mM DGP, 2.1 mM GEK, 2.0 mM AGK; MEMα without FBS

| Structure (SMILES) | OD450 (average value n = 3) |
| --- | --- |
| NCCCC[C@H](NC(=O)[C@H](CCC(=O)O)NC(=O)CN)C(=O)O [GEK, Gly-Glu-Lys] (H-Gly-Glu-Lys-OH; N-terminus and C-terminus assumed) | 0.7300 |

Same assay, conditions: Day 4; 1.1 mM GPP, 2.2 mM DGP, 2.1 mM GEK, 2.0 mM AGK; MEMα without FBS

| Structure (SMILES) | OD450 (average value n = 3) |
| --- | --- |
| NCCCC[C@H](NC(=O)[C@H](CCC(=O)O)NC(=O)CN)C(=O)O [GEK, Gly-Glu-Lys] (H-Gly-Glu-Lys-OH; N-terminus and C-terminus assumed) | 0.9023 |

Same assay, conditions: Day 5; 1.1 mM GPP, 2.2 mM DGP, 2.1 mM GEK, 2.0 mM AGK; MEMα without FBS

| Structure (SMILES) | OD450 (average value n = 3) |
| --- | --- |
| NCCCC[C@H](NC(=O)[C@H](CCC(=O)O)NC(=O)CN)C(=O)O [GEK, Gly-Glu-Lys] (H-Gly-Glu-Lys-OH; N-terminus and C-terminus assumed) | 0.9107 |

Each compound was assayed on CHO DP-12 (assay: Cell growth test and protein production test on each peptide and combination of peptides on coating agent). Details: average n=3; ELISA; one type of tripeptide: GPP 1.1 mM, DGP 2.2 mM, GEK 2.1 mM, AGK 2.0 mM; 5 days.
Assay type: cell-based
Method: Peptides having the sequences of Gly-Pro-Pro (GPP), Asp-Gly-Pro (DGP), Gly-Glu-Lys (GEK), and Ala-Gly-Lys (AGK) were synthesized to prepare each peptide solution such that the concentration was a concentration at which the cell number increased the most within a range of 0 mM to 5 mM. In other words, Gly-Pro-Pro (GPP) was adjusted to 11 mM, Asp-Gly-Pro (DGP) was adjusted to 22 mM, Gly-Glu-Lys (GEK) was adjusted to 21 mM, and Ala-Gly-Lys (AGK) was adjusted to 20 mM, and an amount of 1/10 of the total culture medium volume was added to each well immediately before the cell culture test such that final concentrations were 1.1 mM, 2.2 mM, 2.1 mM, and 2.0 mM, respectively. Poly-L-lysine (Peptide Institute, Inc., Poly-L-Lysine Hydrochloride, code: 3075) was prepared to 0.1 mg/mL, and 200 μL was dispensed into each well of a 24-well plate, which was left to stand in an incubator at 37° C. for 2 hours. After removing the residual liquid with an aspirator, rinsing was performed with distilled water, irradiation was performed with a UV lamp in a clean bench without a lid, and drying was performed overnight to sterilize. A cell suspension prepared such that CHO DP-12 (ATCC, Cat. No. CRL-12445) was at 2×10^4 cells/well and 500 μL was seeded in a 24-well plate and cultured in an incubator at 37° C. and 5% CO2 for 24 hours. As a culture medium, a DMEM basal medium in which 200 nM of methotrexate and 2 μg/mL of insulin were blended in a DMEM culture medium (Gibco) containing 10% FBS was used.
After removing the culture medium from each well and washing with the DMEM basal medium (500 μL), 450 μL of a new DMEM basal medium was dispensed into each well, and each peptide solution (50 μL) was added (total 500 μL/well) to perform culture for 5 days.
As peptides, in addition to single GPP, DGP, GEK, and AGK, combinations of GPP+GEK, GPP+AGK, DGP+GEK, GEK+AGK, DGP+AGK, GPP+GEK+AGK, GPP+DGP+AGK, and GPP+DGP+GEK were used. A similar culture test was performed using a system containing neither peptide nor FBS as a comparative sample.
In order to measure the amount of protein produced, 100 μL of the culture medium supernatant was recovered in a 1.5 mL tube and diluted to quantitatively determine the amount of protein produced by an ELISA method.
In order to recover the cells, the culture medium in each well was recovered in a 1.5 mL tube to be rinsed with 200 μL of the DMEM basal medium, and the rinsed liquid was also recovered in the same 1.5 mL tube. Thereafter, 100 μL of trypsin was added and incubated for 3 minutes. After rinsing with 300 μL of the DMEM basal medium containing 10% FBS, the rinsed liquid was also recovered in the same 1.5 mL tube. After rinsing again with 200 μL of the DMEM basal medium containing 10% FBS, the rinsed liquid was also recovered in the same 1.5 mL tube.
A centrifugation operation was performed on the cells recovered in the 1.5 mL tube. The centrifugation conditions were 1,000 rpm, 10 minutes, and 4° C.
The supernatant was removed, and 300 μL of Cold PBS (phosphate buffered saline) was added to perform a centrifugation operation under the same conditions. The present operation was repeated twice.
Suspension was carried out with 100 μL of Binding Buffer, and 2 μL of propidium iodide (PI) was added and stirred in the tube to cause a reaction for 15 minutes at room temperature and with light shielding. Thereafter, the viable cell count and the cell viability were measured with a flow cytometer.
The above preparation, culture, and measurement were performed with n=3. Table 17, FIG. 17, Table 20, FIG. 20, Table 23, and FIG. 23 show the viable cell count in each peptide solution. Table 18, FIG. 18, Table 21, FIG. 21, Table 24, and FIG. 24 show the cell viability in each peptide solution. Table 19, FIG. 19, Table 22, FIG. 22, Table 25, and FIG. 25 show the amount of protein produced in each peptide solution.

| Structure (SMILES) | Amount of protein produced, Average [mg/L] |
| --- | --- |
| NCCCC[C@H](NC(=O)[C@H](CCC(=O)O)NC(=O)CN)C(=O)O [GEK, Gly-Glu-Lys] (H-Gly-Glu-Lys-OH; N-terminus and C-terminus assumed) | 5.59 |

Same assay, conditions: average n=3; one type of tripeptide: GPP 1.1 mM, DGP 2.2 mM, GEK 2.1 mM, AGK 2.0 mM; 5 days

| Structure (SMILES) | Viability, Average |
| --- | --- |
| NCCCC[C@H](NC(=O)[C@H](CCC(=O)O)NC(=O)CN)C(=O)O [GEK, Gly-Glu-Lys] (H-Gly-Glu-Lys-OH; N-terminus and C-terminus assumed) | 86.9 |

Same assay, conditions: one type of tripeptide: GPP 1.1 mM, DGP 2.2 mM, GEK 2.1 mM, AGK 2.0 mM; poly-L-lysine coating, 5 days, n=3

| Structure (SMILES) | Cells cell count, Average |
| --- | --- |
| NCCCC[C@H](NC(=O)[C@H](CCC(=O)O)NC(=O)CN)C(=O)O [GEK, Gly-Glu-Lys] (H-Gly-Glu-Lys-OH; N-terminus and C-terminus assumed) | 15.9345 ×10^4 |

Same assay, conditions: replicate 1; ELISA; one type of tripeptide: GPP 1.1 mM, DGP 2.2 mM, GEK 2.1 mM, AGK 2.0 mM; 5 days

| Structure (SMILES) | Amount of protein produced, 1 [mg/L] |
| --- | --- |
| NCCCC[C@H](NC(=O)[C@H](CCC(=O)O)NC(=O)CN)C(=O)O [GEK, Gly-Glu-Lys] (H-Gly-Glu-Lys-OH; N-terminus and C-terminus assumed) | 6.13 |

Same assay, conditions: replicate 1; one type of tripeptide: GPP 1.1 mM, DGP 2.2 mM, GEK 2.1 mM, AGK 2.0 mM; 5 days

| Structure (SMILES) | Viability, 1 |
| --- | --- |
| NCCCC[C@H](NC(=O)[C@H](CCC(=O)O)NC(=O)CN)C(=O)O [GEK, Gly-Glu-Lys] (H-Gly-Glu-Lys-OH; N-terminus and C-terminus assumed) | 86.5 |

Same assay, conditions: replicate 2; ELISA; one type of tripeptide: GPP 1.1 mM, DGP 2.2 mM, GEK 2.1 mM, AGK 2.0 mM; 5 days

| Structure (SMILES) | Amount of protein produced, 2 [mg/L] |
| --- | --- |
| NCCCC[C@H](NC(=O)[C@H](CCC(=O)O)NC(=O)CN)C(=O)O [GEK, Gly-Glu-Lys] (H-Gly-Glu-Lys-OH; N-terminus and C-terminus assumed) | 4.59 |

Same assay, conditions: replicate 2; one type of tripeptide: GPP 1.1 mM, DGP 2.2 mM, GEK 2.1 mM, AGK 2.0 mM; 5 days

| Structure (SMILES) | Viability, 2 |
| --- | --- |
| NCCCC[C@H](NC(=O)[C@H](CCC(=O)O)NC(=O)CN)C(=O)O [GEK, Gly-Glu-Lys] (H-Gly-Glu-Lys-OH; N-terminus and C-terminus assumed) | 87.4 |

Same assay, conditions: replicate 3; ELISA; one type of tripeptide: GPP 1.1 mM, DGP 2.2 mM, GEK 2.1 mM, AGK 2.0 mM; 5 days

| Structure (SMILES) | Amount of protein produced, 3 [mg/L] |
| --- | --- |
| NCCCC[C@H](NC(=O)[C@H](CCC(=O)O)NC(=O)CN)C(=O)O [GEK, Gly-Glu-Lys] (H-Gly-Glu-Lys-OH; N-terminus and C-terminus assumed) | 6.06 |

Same assay, conditions: replicate 3; one type of tripeptide: GPP 1.1 mM, DGP 2.2 mM, GEK 2.1 mM, AGK 2.0 mM; 5 days

| Structure (SMILES) | Viability, 3 |
| --- | --- |
| NCCCC[C@H](NC(=O)[C@H](CCC(=O)O)NC(=O)CN)C(=O)O [GEK, Gly-Glu-Lys] (H-Gly-Glu-Lys-OH; N-terminus and C-terminus assumed) | 86.7 |
